Measured values reported in patent publication US12144789B2, “Pharmaceutical composition exhibiting anti-tumor activity, method for treating patient suffering from cancer and method for inhibiting tumor growth” (Gongwin Biopharm Co., Ltd., priority 2016, dated 2024).
Where two headings read alike, the source gives them in different places.

Key:
Tca-8113 cells [1] = type: cell-based; settings: human; for intracellular PTS concentration variation between Tca-8113 cells and HGF cells: 10 min
Method: Firstly, Tca-8113 were treated with PTS or dimethyl sulfoxide (DMSO) (control vehicle) and then extract the intracellular matrix subjected to high-performance liquid chromatography.
(§1) In assessing the accumulation of intracellular PTS between Tca-8113 cells and normal cells after different doses and incubation periods of PTS treatment, Tca-8113 and Human gingival fibroblast (HGF) cells were treated 2.5 μmol/l˜80 μmol/l PTS for different periods. Please see FIG. 2A and FIG. 2B, which show the plots of intracellular PTS concentration after 2.5 μmol/l˜80 μmol/l PTS treatment for different periods of time in Tca-8113 and HGF cell, respectively. […] However, the accumulated intracellular PTS concentration in […] cells is much higher than that in HGF cells. […] The intracellular PTS concentration variation between the Tca-8113 cells and HGF cells can range from 5× (20 μmol/l), 8× (40 μmol/l) to 12 (80 μmol/l).

[2] = tested on: Human gingival fibroblast (HGF) cells; type: cell-based; settings: 10 min
Method: as §1

Tca-8113 cells [3] = test: MTT cell viability assay; type: cell-based; settings: for suppression ratio (cancer cell suppression %/normal cell suppression %): Tca-8113 vs HGF
Method: (§2) To examine the effects of PTS on cell viability, Tca-8113 and HGF cells were treated with different doses of PTS for 1 h. The 3-(4,5-dimethylthiazol-2-yl)-2,5-diphenyltetrazolium bromide (MTT) assay is conducted by treating Tca-8113 and human gingival fibroblast (HGF) cells with 2.5 μmol/l, 5 μmol/l, 10 μmol/l, 20 μmol/l, 40 μmol/l and 80 μmol/l PTS for 1 h, respectively. The effects of PTS on cell viability were assessed using MTT 72 h after treatment. […] PTS induces more significant cell death in […] cells than that in normal gingival fibroblasts. Taking the 10 μmol/l […] treatment for example, about 50% Tca-8113 cells were suppressed while only 10% […] cells were suppressed, so the suppression ratio (cancer cell suppression %/normal cell suppression %) is 5. Similarly, the suppression ratios of 20 μmol/l, 40 μmol/l and 80 μmol/l are 2.6, 1.8, 1.05.

[4] = tested on: Human gingival fibroblast (HGF) cells; type: cell-based
Method: as §2

Tca-8113 cells [5] = test: Morphologic changes by phase-contrast microscope; type: cell-based; settings: 40 μmol/l PTS for 1 h
Method: Next, in observing the morphological feature of the treated cells, Tca-8113 and HGF cells were treated with 40 μmol/l PTS or DMSO (control vehicle) for 1 h; the morphologic changes were observed using a phase-contrast microscope.

Tca-8113 cells [6] = test: Colony formation assay; type: cell-based; settings: 80 μmol/l PTS
Source text: Colony formation assay shown in FIG. 6 further confirms the cytotoxic effects of PTS on Tca-8113 cells.

Tca-8113 cells [7] = test: cells; type: cell-based; settings: 1 h
Method: Next, cancer cell death is measured by using flow cytometric analysis. Tca-8113 cells were treated with 40 μmol/l and 80 μmol/l PTS or DMSO (control) for 1 h. Cells were stained with Annexin V− FITC and propidium iodide (PI), followed by flow cytometric analysis.

Tca-8113 cells [8] = test: Lactate dehydrogenase (LDH) release assay (necrosis); type: cell-based; settings: 80 μmol/l PTS, 1 h
Method: Furthermore, in studying PTS-induced necrosis, LDH release assay is used. LDH is a cytosolic enzyme that can be released into culture medium upon damage of the plasma membrane. Necrosis, which results in an early loss of plasma membrane integrity, can be determined using the LDH release assay. In LDH release assay, Tca-8113 cells were treated with 80 μmol/l PTS or DMSO for 1 h; PTS-induced necrosis was determined using the lactate dehydrogenase (LDH) release assay.

Tca-8113 cells [9] = test: Transwell migration assay; type: cell-based; settings: 40 μmol/l PTS, 1 h
Method: The effect of PTS on the invasive ability of cancer cells is also investigated. Tca-8113 cells were treated with 40 μmol/l PTS or DMSO for 1 h; the effects of PTS on cell migration were determined using a transwell migration assay.

Tca-8113 cells [10] = test: Transmission electron microscopy of ultrastructural changes; type: cell-based; settings: 40 μmol/l PTS, 1 h
Method: To investigate the mechanisms of PTS-induced cell death, the present invention uses transmission electron microscopy analysis to observe the changes in ultrastructures of Tca-8113 cells. Tca-8113 cells were treated with 40 μmol/l PTS or dimethyl sulfoxide for 1 h. The ultrastructural changes were observed using a transmission electron microscope. […] More secondary lysosomes (pointed by arrow) with high electron density were observed after PTS treatment. Lysosomal instability was proposed to control the fate of cells either through activation of apoptosis or necrosis.

[11] = tested on: Lysosomes of Tca-8113 cells; test: Lysosomal integrity assay (LMP), lysosomal β-galactosidase free activity; type: biochemical; settings: isolated lysosomes of Tca-8113 cells
Method: Next, a lysosomal integrity assay (LMP) is performed to assess the effects of PTS on lysosomal membrane integrity. Lysosomes of Tca-8113 cells were isolated using the Percoll gradient centrifugation method. The effects of PTS on lysosomal integrity were assessed by measuring the activity of lysosomal β-galactosidase using UMBG (4-methylumbelliferyl-β-D-galactoside). The 4-methylumbelliferone released was determined by measuring its fluorescence (excitation: 365 nm, emission: 444 nm) on a fluorescence spectrophotometer. The activity of the enzyme measured in the presence and absence of 0.36% Triton X-100 was designated the […], respectively.

cathepsin B = test: Western blot analysis of cleaved cathepsin B; type: cell-based; settings: Tca-8113 cells, 40 μmol/l PTS, 1 h
Method: In the western blot analysis, Tca-8113 cells are analyzed after 40 μmol/l PTS treatment for 1 h.

cytochrome c = test: Western blot analysis of cytosolic cytochrome c; type: cell-based; settings: Tca-8113 cells, 40 μmol/l and 80 μmol/l PTS, 1 h
Method: (§3) Increased lysosomal permeability is reported to induce mitochondrial damage and the release of pro-apoptotic factors. The applicant therefore investigated the cytosolic cytochrome c released from the mitochondria after PTS treatment. […] Inhibition of ATP biosynthesis is observed when Tca-8113 cells were treated with 40 μmol/l PTS or DMSO for […]. The effects of PTS on ATP biosynthesis were assessed by measuring chemiluminescence. […] 40 μmol/l PTS treatment for 1 h attenuated ATP biosynthesis to 65.8%.

[12] = tested on: mitochondrial ATP biosynthesis in Tca-8113 cells; test: ATP biosynthesis by chemiluminescence; type: cell-based; settings: 40 μmol/l PTS
Method: as §3

[13] = cited from earlier work
[14] = 10 μmol/l for 1 h, MTT 72 h after treatment
[15] = read-out: Viable cells (Annexin V−/PI−)

SMILES: Cc1ccc(S(N)(=O)=O)cc1 [PTS, para-toluenesulfonamide]
- intracellular PTS concentration (Tca-8113 cells [1]): increase the intracellular PTS concentration in Tca-8113 cells in a dose dependent manner
- intracellular PTS concentration variation between Tca-8113 cells and HGF cells (Tca-8113 cells [1]; 20 μmol/l): 5 ×
- intracellular PTS concentration variation between Tca-8113 cells and HGF cells (Tca-8113 cells [1]; 40 μmol/l): 8 ×
- intracellular PTS concentration variation between Tca-8113 cells and HGF cells (Tca-8113 cells [1]; 80 μmol/l): 12
- intracellular PTS accumulation [2]: significantly inhibited in HGF cells compared with that in Tca-8113 cells
- Tca-8113 cells suppressed (Tca-8113 cells [3]; [14]): about 50%
- suppression ratio (cancer cell suppression %/normal cell suppression %) (Tca-8113 cells [3]; 10 μmol/l): 5
- suppression ratio (cancer cell suppression %/normal cell suppression %) (Tca-8113 cells [3]; 20 μmol/l): 2.6
- suppression ratio (cancer cell suppression %/normal cell suppression %) (Tca-8113 cells [3]; 40 μmol/l): 1.8
- number of viable cells (Tca-8113 cells [3]; 80 μmol/l PTS for 1 h, MTT 72 h after treatment): almost completely suppressed the number of viable cells
- suppression ratio (cancer cell suppression %/normal cell suppression %) (Tca-8113 cells [3]; 80 μmol/l): 1.05
- viability of Tca-8113 cells (Tca-8113 cells [3]; 2.5-80 μmol/l PTS for 1 h, MTT 72 h after treatment): significantly reduced the viability of Tca-8113 cells in a dose-dependent manner
- HGF cells suppressed [4, 14]: 10%
- inhibitory effects of PTS in HGF cells ([4]; human, 1 h): significantly decreased compared with that in Tca-8113 cells
- morphologic changes (Tca-8113 cells [5]): induce classical apoptotic features including cell shrinkage, nuclear condensation, cell density reduction, and apoptotic body formation
- number of viable cells (colony formation) (Tca-8113 cells [6]): almost completely suppressed the number of viable cells
- Late apoptotic/necrotic rate (Annexin V+/PI+) (Tca-8113 cells [7]; 40 μmol/l PTS): 11.5%
- early apoptotic rate (Annexin V+/PI−) (Tca-8113 cells [7]; 40 μmol/l PTS): 20.2%
- Late apoptotic/necrotic rate (Annexin V+/PI+) (Tca-8113 cells [7]; 80 μmol/l PTS): 15.9%
- early apoptotic rate (Annexin V+/PI−) (Tca-8113 cells [7]; 80 μmol/l PTS): 64.1%
- viability at 40 µM (Tca-8113 cells [7]; [15]): 67.5%
- viability at 80 µM (Tca-8113 cells [7]; [15]): 19.8%
- LDH release compared with the control group (Tca-8113 cells [8]): two-fold increase
- invasive ability (cell migration) (Tca-8113 cells [9]): significantly reduced the invasive ability of Tca-8113 cells
- ultrastructural changes (Tca-8113 cells [10]): shrunk nuclei and an irregular nuclear membrane
- free enzyme activity (lysosomal β-galactosidase) [11]: significantly increase free enzyme activity in a dose-dependent manner
- cleaved cathepsin B expression (cathepsin B): significantly increases cleaved cathepsin B expression
- cytosolic cytochrome c expression (cytochrome c): significantly induced cytosolic cytochrome c expression
- mitochondrial ATP biosynthesis ([12]; 24-48 h): significantly inhibited mitochondrial ATP biosynthesis in a time-dependent manner
- ATP biosynthesis attenuated to ([12]; 1 h): 65.8%
- solubility in water or a water-based solution [13]: not readily dissolved in water or in a water-based solution
